The source of these data is US9624167B2, “N-(4-hydroxy-4-methyl-cyclohexyl)-4-phenyl-benzenesulfonamides and N-(4-hydroxy-4-methyl-cyclohexyl)-4-(2-pyridyl)benzenesulfonamides and their therapeutic use” (PIMCO 2664 LIMITED, priority 2013, dated 2017).

One data set addresses T1, hERG (Homo sapiens, UniProt Q12809).
T1 construct: expressed in transfected cells; host or cells: Chinese Hamster Ovary cells (hERG-CHO), stably transfected
Nature of the data set: hERG Ion Channel Assay (Q-patch, hERG-CHO cells). It is filed as cell-based. The note with it: human, CHO cells stably transfected with hERG (hERG-CHO), pH 7.4, 30 μM, hERG tail current. As to the method:
(§1) The activity of the compounds against the hERG ion channel was tested. The assay was conducted using the automated path-clamp, Q-patch method using stably transfected Chinese Hamster Ovary cells (hERG-CHO). hERG-CHO cells were cultured in F-12 Kaighn's Nutrient Mixture medium (Invitrogen)+10% FBS at 37° C. for 1-3 days. Cells were kept at 30° C. for 24 to 48 hours prior to patch clamping in order to increase the hERG current amplitude. Subsequently, the cells were harvested by trypsinisation, and kept in Serum Free Medium (SFM) in the Q-patch cell preparation state for up to 6 hours at room temperature before being washed and re-suspended in extracellular solution and applied to the patch clamp sites for data recording.
(§2) Patch-clamp voltage protocol: After whole cell configuration was achieved, the cell was held at −80 mV. A 50 millisecond pulse to −40 mV was delivered to measure the leaking current, which was subtracted from the tail current on-line. Then the cell was depolarized to +20 mV for 2 seconds, followed by a one second pulse to −40 mV to reveal hERG tail current. This paradigm was delivered once every 5 seconds to monitor the current amplitude.
(§3) Extracellular solution: 137 mM NaCl, 4 mM KCl, 1.8 mM CaCl2, 1 mM MgCl2, 10 mM D(+)-glucose, 10 mM HePES buffer (pH adjusted to 7.4 with NaOH).
(§4) After the whole cell configuration was achieved, the extracellular solution (control) was applied first and the cell was stabilized for 2 minutes in extracellular solution. The test compound was then applied from low concentrations to high concentrations cumulatively. The cell was incubated with each test concentration for 5 minutes. During each incubation, the cell was repetitively stimulated using the voltage protocol described above, and the tail current amplitude was continuously monitored.
(§5) • (1) Peak tail current >100 pA in control. • (2) Initial run-down <30% and the run-down stops before first application of the test compound. • (3) Leak currents <50% of the control peak tail currents at any time. • (4) rs<20 MΩ throughout the experiment.
(§6) The degree of inhibition (%) was obtained by measuring the tail current amplitude, induced by a one second test pulse to −40 mV after a two second pulse to +20 mV, before and after incubation with the test compound. The difference in current was normalized to control and multiplied by 100 in order to obtain the percent inhibition.
(§7) Concentration (log) response curves were fitted to a logistic equation (three parameters assuming complete block of the current at very high test compound concentrations) to generate estimates of the 50% inhibitory concentration (IC50). The concentration-response relationship of each compound was constructed from the percentage reductions of current amplitude by sequential concentrations.
(hERG is a cardiac potassium channel; its block is linked to QT prolongation.)

For a further data set, the target named is T2, hERG ion channel (Homo sapiens, UniProt Q12809).
T2 construct: expressed in transfected cells; host or cells: Chinese Hamster Ovary cells (hERG-CHO), stably transfected
T2 sequence (Q12809 whole entry): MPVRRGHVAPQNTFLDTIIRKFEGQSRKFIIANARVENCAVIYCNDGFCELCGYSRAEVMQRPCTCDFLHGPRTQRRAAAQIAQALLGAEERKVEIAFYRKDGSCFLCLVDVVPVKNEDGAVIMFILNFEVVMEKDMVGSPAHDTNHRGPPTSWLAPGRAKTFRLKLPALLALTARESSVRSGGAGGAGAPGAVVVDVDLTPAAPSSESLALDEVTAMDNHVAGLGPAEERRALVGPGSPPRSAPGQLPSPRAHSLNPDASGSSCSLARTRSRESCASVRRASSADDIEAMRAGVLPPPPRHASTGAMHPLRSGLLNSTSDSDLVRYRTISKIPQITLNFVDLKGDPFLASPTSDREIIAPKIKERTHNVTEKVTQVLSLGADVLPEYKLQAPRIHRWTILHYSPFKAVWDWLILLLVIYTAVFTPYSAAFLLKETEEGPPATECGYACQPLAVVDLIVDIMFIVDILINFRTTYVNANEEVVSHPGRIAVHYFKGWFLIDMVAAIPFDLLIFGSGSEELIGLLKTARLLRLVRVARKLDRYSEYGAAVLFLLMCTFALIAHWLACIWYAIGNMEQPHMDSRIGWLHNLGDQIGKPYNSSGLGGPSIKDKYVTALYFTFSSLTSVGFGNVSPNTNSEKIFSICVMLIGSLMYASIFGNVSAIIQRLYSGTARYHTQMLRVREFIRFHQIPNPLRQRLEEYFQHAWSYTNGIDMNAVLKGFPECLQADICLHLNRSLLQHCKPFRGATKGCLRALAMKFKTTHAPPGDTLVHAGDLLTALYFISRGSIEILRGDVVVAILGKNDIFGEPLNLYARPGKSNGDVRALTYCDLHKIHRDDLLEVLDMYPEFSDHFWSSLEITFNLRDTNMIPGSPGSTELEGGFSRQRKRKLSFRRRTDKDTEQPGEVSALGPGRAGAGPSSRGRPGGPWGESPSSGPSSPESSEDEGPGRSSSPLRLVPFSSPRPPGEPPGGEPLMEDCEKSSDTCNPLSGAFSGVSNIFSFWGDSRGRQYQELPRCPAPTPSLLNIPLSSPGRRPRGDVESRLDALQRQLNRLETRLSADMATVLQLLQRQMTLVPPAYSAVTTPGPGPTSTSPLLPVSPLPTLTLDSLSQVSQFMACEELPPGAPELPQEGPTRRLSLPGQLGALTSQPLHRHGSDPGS
The data set can be described thus: hERG Ion Channel Assay (Q-patch, hERG-CHO cells). The note with it: hERG tail current, hERG-CHO cells, Q-patch; read-out: IC50 (1). Format: cell-based. As to the method:
as §1, §2, §3, §4, §5, §6, §7

The test system of the next data set is J774 macrophages. The data set can be described thus: Resazurin Macrophage J774 Viability Assay. Format: cell-based. The note with it: Mus musculus, 6 point concentration range 10 μM to 10 nM, n = 3 replicates, mean of 2 independent experiments, 72 hour incubation, read-out: IC50 (1). As to the method:
Potency was assessed using a viability assay based on the survival of the J774 macrophage cell line. Macrophages are closely related to osteoclasts and have been used previously as a model system for osteoclast survival (see, e.g., Luckman et al., 1998, “Heterocycle-containing bisphosphonates cause apoptosis and inhibit bone resorption by preventing protein prenylation: evidence from structure-activity relationships in J774 macrophages,” J. Bone Miner. Res., Vol. 13, pp. 1668-1678). The model is indicative both of effects on bone protection in diseases such as osteoporosis, osteoarthritis and rheumatoid arthritis, and of effects on inflammation since, like osteoclasts, J774 macrophages are dependent for survival on continued NFκB activation.
In vitro potency of test compounds was determined by incubation with J774 macrophages and subsequent determination of cell viability using resazurin.
Resazurin is a redox dye commonly used as an indicator of viability in cultured cells (see, e.g., Anoopkumar-Dukie, 2005, British Journal of Radiology, Vol. 78, pp. 945-947). It is non-toxic to cells and stable in culture medium, allowing continuous measurement of cell proliferation in vitro as either a kinetic or endpoint assay. The assay is based on the ability of viable, metabolically-active cells to reduce resazurin (which is blue and non-fluorescent) to resorufin and dihydroresorufin (which are red and fluorescent) using electrons from reducing species, such as nicotinamide adenine dinucleotide (NADPH) and flavin adenine dinucleotide (FADH). This transformation, from oxidised form to reduced form, can be measured either colorimetrically or fluorometrically. Insults that impair cell viability and proliferation also affects the capacity of cells to reduce resazurin, and the rate of dye reduction is directly proportional to the number of viable cells present.
For fluorescence measurements, 530-560 nm excitation and 590 nm emission wavelengths are typically used. For colorimetric measurements, absorbance at 570 nm (reduced form) and 600 nm (oxidised form) is typically measured. A simple calculation is performed to determine the relative quantities of the two species: a high ratio of resorufin (the reduced form) to resazurin (the oxidised form) is an indicator that cells are proliferating and viable. A low ratio indicates cells that are quiescent or non-viable.
J774 cells were plated at 10^4 cells per well in 100 μL αMEM (α Modified Eagle Medium) in 96-well plates and allowed to adhere overnight. The following day, test compounds were prepared as 100 mM solutions in DMSO. These stock solutions were diluted in DMSO and then diluted 1000× in culture medium (αMEM) before being added directly to the wells so as to give the desired final compound concentration. After a 72 hour incubation at 37° C./5% CO2, resazurin (Alamar Blue, Biosource International) was added to each well (1:10 v/v, 10 μL). The plate was then incubated at 37° C. for 3 hours and fluorescence was measured at 590 nm, with a 25 nm bandwidth.
The average results for each test compound were expressed as a percent (%) of the average control value reflecting cell viability. The average values across the concentrations tested were then plotted and the IC50 for was calculated by fitting the data to a 4-parameter IC50 equation using software from Grafit (Erithacus Software). Each experiment was repeated twice and the data are presented as the mean IC50 from both experiments.

Data set [1] can be described thus: Aqueous (FaSSIF) solubility. Format: physicochemical. The note with it: fasted state simulated intestinal fluid (FaSSIF), kinetic from dmso stock, pH 6.5, three replicates, 16 hours, read-out: Solubility (1). As to the method:
Solubility was measured by equilibration of the compound in fasted state simulated intestinal fluid (FaSSIF) and quantified by high-performance liquid chromatography (HPLC).
Aqueous solubility was measured by equilibration of compounds with fasted state simulated intestinal fluid (FaSSIF) and quantified spectrophotometrically.
FaSSIF was prepared as described below:
Preparation of blank FaSSIF: 0.21 g of sodium hydroxide (NaOH) pellets, 1.97 g of dihydrogen sodium phosphate (NaH2PO4.2H2O) and 3.09 g of sodium chloride (NaCl) were dissolved in 400 mL of deionised water. […]
Preparation of FaSSIF: 0.056 g of SIF Powder (containing sodium taurocholate and lecithin) (Phares AG) was dissolved in 25 mL of blank FaSSIF and stirred until the powder was completely dissolved. The solution was allowed to stand for 2 hours during which it became opalescent; it was used within 24 hours. The final solution composition was characterised as follows: • Sodium taurocholate: 3 mM • Lecithin: 0.75 mM • Osmolarity: 270±10 mOsmol • pH: 6.5
The optical density was measured at the end of the incubation period for test compounds and a reference used to determine solubility. In brief, two samples were prepared for each determination: a reference sample consisting of a stock solution of test compound in DMSO diluted in system solution (a phosphate free, low absorption buffer) and propanol; and a test sample (prepared in triplicate) consisting of 0.5 mL FaSSIF spiked with test compound at 0.2 mM. Each sample was incubated at room temperature for 16 hours with constant shaking at 250 rpm. At the end of the incubation period, 0.3 mL of each sample was filtered through a pION filter plate (PION, Woburn Mass.), diluted 1:1 with propanol and scanned using UV spectrophotometry at λmax ([…]) using a Spectra Max Plus—Version 2.1000 (Molecular Devices, Sunnyvale, Calif.), with μSOL Explorer solubility determination software (pION, Woburn, Mass.).
FaSSIF solubility was calculated using the following formula:
[formula] wherein: • “OD” is the optical density; • “Cr” is the concentration of the reference (33.4 μM); and • “molecular weight” is for the test compound (e.g., 381.44 for ABD735).

≈ marks a conversion by molar mass, not a printed value.

T1 sequence (Q12809 whole entry): as above

The term inhibition denotes how much of the control response was suppressed. The low end stands for a weak effect, the high end for a strong effect. Broadly, the IC50 is the concentration that inhibits the measured activity by half. One may read the solubility as the dissolved amount per volume that the medium holds. At hERG, `O=S(=O)(N[C@H]1CC[C@H](O)CC1)c1ccc(-c2ccc(F)cc2F)cc1` [ABD599, reference compound] came in with an inhibition at 5 min, 30 µM of 85%. The IC50 worked out at 4900 nM on hERG ion channel and 190 nM in the data set with J774 macrophages. The solubility at 16 h in data set [1] is 30 µg/mL (≈ 81.7 µM).
